Reference: article PMC10766610, “DCAF1-based PROTACs with activity against clinically validated targets overcoming intrinsic- and acquired-degrader resistance” (Nature Communications, 2024)
pKd: −log10 of the molar value. Like-named read-outs stand apart in the source and are kept apart here.

Tests used:
DCAF1(WDR) = biological target: T1, DCAF1(WDR) (Homo sapiens, UniProt Q9Y4B6, E1398S); assay: SPR, surface immobilized DCAF1(WDR), binary compound binding
T1 construct: His6 (C); made in house; host or cells: Sf9 insect cells (baculovirus), co-expressed with BirA
T1 sequence (Q9Y4B6 1073-1399 E1398S): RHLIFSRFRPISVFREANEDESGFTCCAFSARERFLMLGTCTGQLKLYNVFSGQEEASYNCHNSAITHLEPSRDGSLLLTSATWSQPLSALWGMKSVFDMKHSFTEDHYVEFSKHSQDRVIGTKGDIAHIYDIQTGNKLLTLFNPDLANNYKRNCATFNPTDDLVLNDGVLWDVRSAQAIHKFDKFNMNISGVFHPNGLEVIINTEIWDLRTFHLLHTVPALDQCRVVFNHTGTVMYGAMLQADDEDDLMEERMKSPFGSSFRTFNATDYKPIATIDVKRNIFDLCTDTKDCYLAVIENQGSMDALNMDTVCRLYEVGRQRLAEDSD

[1] = Viability by FSC/SSC gate (flow cytometry) in TMD8 BTK-GFP/mCh cells; format: cell-based, human; settings: human, TMD8 BTK-GFP/mCh cells, TMD8 BTK-GFP/mCh, 24 h
Description: For flow cytometry measurements, 25,000 exponentially growing TMD8 BTK-GFP/mCh cells were plated in 100 μL of each well of a 96-well plate and grown for 24 h. Cells were then dosed with corresponding compounds and doses from 10 mM DMSO stock for 24 h, after which GFP and mCherry fluorescence was read with a Beckmann Coulter Cytoflex. For competition experiment, both compounds were added at the same time and dosed for 24 h. Cells were gated based on Forward & Side Scatter and selection for Single cells using SSC-A vs. SSC-H. Further, the population of viable cells was defined by the forward & side-scatter characteristics of DMSO-treated cells. […] Effects on viability were measured by the reduction of the percentage of cells included in this viable-population gate with increasing doses of compound tested. Degradation of BTK was calculated based on subtracting background (BG) fluorescence of parental TMD8 signal via (GFP-BG)/(mCherry-BG) of viable cells. Median ratios of three technical (different wells) replicates were used to calculate daily averages. Each compound dose–response was generated via three biological replicates (different days of experiment). Degradation curve parameters (DC50 & Abs. DC50 & max. Deg) were extracted using GraphPad Prism’s 4-parameter logistic curve fitting.
The viability window was determined by measuring the GI50 of viability based on the percentage of cells included in the viable gate and comparing it to the DC50 of degradation. The fold-change difference describing this window is [GI50 Viability / DC50 Degradation], where values above 1 indicate a positive (lower DC50 degradation than AC50 viability) window.

BTK [2] = biological target: T2, BTK (Homo sapiens, UniProt Q06187); assay: BTK-GFP degradation by flow cytometry in TMD8 BTK-GFP/mCh cells; format: cell-based; parameters: performed with full-length BTK and endogenous DCAF1; expressed in transfected cells; host or cells: TMD8 cells, lentiviral, blasticidin-selected (TMD8 BTK-GFP/mCh); settings: for DC50 / max. BTK degradation (%): 24 h
T2 sequence (Q06187 2-659 limits assumed): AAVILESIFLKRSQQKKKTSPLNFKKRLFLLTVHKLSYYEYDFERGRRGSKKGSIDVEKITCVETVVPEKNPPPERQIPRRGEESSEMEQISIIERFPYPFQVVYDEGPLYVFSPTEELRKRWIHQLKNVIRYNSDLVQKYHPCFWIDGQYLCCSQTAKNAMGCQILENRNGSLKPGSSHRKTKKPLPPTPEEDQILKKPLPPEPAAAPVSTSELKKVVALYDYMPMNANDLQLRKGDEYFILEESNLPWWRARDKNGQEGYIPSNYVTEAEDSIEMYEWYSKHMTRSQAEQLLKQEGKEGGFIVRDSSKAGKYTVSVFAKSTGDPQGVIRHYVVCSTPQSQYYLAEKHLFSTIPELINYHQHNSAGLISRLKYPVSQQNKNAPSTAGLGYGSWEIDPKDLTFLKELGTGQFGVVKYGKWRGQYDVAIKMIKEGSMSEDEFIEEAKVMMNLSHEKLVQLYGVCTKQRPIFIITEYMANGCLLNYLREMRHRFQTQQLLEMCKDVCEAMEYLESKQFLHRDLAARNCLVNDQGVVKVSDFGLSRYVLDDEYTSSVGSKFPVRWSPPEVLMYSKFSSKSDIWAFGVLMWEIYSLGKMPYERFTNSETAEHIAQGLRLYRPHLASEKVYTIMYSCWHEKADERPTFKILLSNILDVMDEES
Description: The bicistronic pLenti6 BTK-GFP-chysel-mCHERRY expression vector was cloned as described[92] using Gateway cloning with a pENTR-BTK plasmid lacking a STOP codon. TMD8 cells were then infected with lentiviral particles from this vector as described above and stably transfected cells were selected with blasticidin at a concentration of 10 μg/mL referred to as TMD8 BTK-GFP/mCh cells.
For flow cytometry measurements, 25,000 exponentially growing TMD8 BTK-GFP/mCh cells were plated in 100 μL of each well of a 96-well plate and grown for 24 h. Cells were then dosed with corresponding compounds and doses from 10 mM DMSO stock for 24 h, after which GFP and mCherry fluorescence was read with a Beckmann Coulter Cytoflex. For competition experiment, both compounds were added at the same time and dosed for 24 h. Cells were gated based on Forward & Side Scatter and selection for Single cells using SSC-A vs. SSC-H. Further, the population of viable cells was defined by the forward & side-scatter characteristics of DMSO-treated cells. To confirm cells outside of this population as non-viable, cells were plated and treated for 24 h, washed with PBS and stained for 30 min with two markers of early (Annexin-V) and late (LIVE/DEAD) apoptosis. Effects on viability were measured by the reduction of the percentage of cells included in this viable-population gate with increasing doses of compound tested. Degradation of BTK was calculated based on subtracting background (BG) fluorescence of parental TMD8 signal via (GFP-BG)/(mCherry-BG) of viable cells. Median ratios of three technical (different wells) replicates were used to calculate daily averages. Each compound dose–response was generated via three biological replicates (different days of experiment). Degradation curve parameters (DC50 & Abs. DC50 & max. Deg) were extracted using GraphPad Prism’s 4-parameter logistic curve fitting.

BTK [3] = biological target: T2, BTK; assay: Immunoblot of endogenous BTK in TMD8 cells; format: cell-based; parameters: performed with full-length BTK and endogenous DCAF1; expressed in transfected cells; host or cells: TMD8 cells, lentiviral, blasticidin-selected (TMD8 BTK-GFP/mCh)
Description: Whole cell lysates for immunoblotting were prepared by pelleting cells at 4 °C (300 g) for 3 min. Cell pellets were then washed 1x with PBS and resuspended in RIPA lysis buffer (VWR, cat # 97063-270) supplemented with protease (Thermo Scientific, cat # A32955) and phosphatase (Thermo Scientific, cat # A32957) inhibitor tablets. Lysates were clarified at 16,000 × g for 15 min at 4 °C prior to quantification by Lowry assay (Bio-Rad cat # 5000113 and cat # 5000114). Whole-cell lysates were loaded into 4–20% Criterion TGX Precast 18 well gels (Bio-Rad, cat # 5671094) and separated by electrophoreses at 120 V for 1 h. The gels were transferred to a nitrocellulose membrane using the Trans-Blot Turbo (Bio-Rad) for 7 min and then blocked for 1 h at room temperature in Odyssey blocking buffer (LICOR Biosciences, cat # 927-50000). Membranes were probed with the appropriate primary antibodies (diluted 1:1000) overnight at 4 °C in 20% Odyssey blocking buffer in 1x TBST. Membranes were washed three times with 1x TBST (5 min per wash), and then incubated with IRDye goat anti-mouse (LICOR, cat # 926-32210) or goat anti-rabbit (LICOR, cat # 926-32211) secondary antibody diluted 1:10,000 in 20% Odyssey blocking buffer for 1 h at room temperature. After three 5-min washes with 1x TBST, the immunoblots were visualized using the ODYSSEY Infrared Imaging System (LICOR). Alternatively, SDS-PAGE resolved proteins were transferred to a PVDF membrane using a wet blotting system (Invitrogen). Membranes were blocked in 5% Milk-PBS-Tween 20 for 1 h and incubated with primary antibody over night at 4 °C. Secondary antibodies (secondary antibody: anti-rabbit, goat pAb to Rb-IgG (Abcam, #7090); secondary antibody: anti-mouse, sheep IgG HRP-linked (GE healthcare, #NA931V)) were incubated for 1 h at room temperature (RT) before blots were developed on film using the detection kit SuperSignal West Femto Maximum Sensitivity Substrate (Thermo Fisher, #34096).

[4] = Fig. 6b, SPR, read-out: KD DCAF1
[5] = Fig. 6b, read-out: DC50 BTK degradation (24h)
[6] = TMD8 BTK-GFP/mCh, read-out: Absolute DC50 BTK-Degradation
[7] = TMD8 BTK-GFP/mCh, read-out: DC50 BTK-Degradation

Structure (SMILES) | pKd (DCAF1(WDR); binary, compound alone, spread in brackets, read-out: SPR KD) | pKd (DCAF1(WDR); [4]) | GI50 at 24 h ([1]; read-out: Abs GI50) | GI50 at 24 h ([1]; read-out: GI50) | max. BTK degradation (24h, %) (BTK [2]; Fig. 6b) | DC50 (BTK [2]; [5]) | max. BTK degradation (%) (BTK [2]; TMD8 BTK-GFP/mCh) | DC50 (BTK [2]; [6]) | DC50 (BTK [2]; [7]) | concentration giving significant reduction of BTK (BTK [3]; TMD8, 6 h dose-response, immunoblot) | GI50 at 24 h ([1]; read-out: GI50 viability) | DC50 (BTK [2]; TMD8 BTK-GFP/mCh, read-out: DC50 BTK-GFP degradation) | BTK degradation potency (BTK [3]; TMD8, 24 h, immunoblot) | BTK reduction by control treatment (BTK [3]; TMD8, 1 µM, 1, 3, 6 and 24 h)
COc1cc(-c2cn(C)c(=O)c3cnccc23)c(OC)cc1CN1CCC(OCCCCCC(=O)N2CCN(c3ccc4c(NCCN)nc(C5(c6ccc(Cl)cc6)CCCCC5)nc4c3)CC2)CC1 [DBr-1] | 7.89 | – | – | – | – | – | – | – | – | – | – | – | – | –
Cc1c(NC(=O)c2ccc(C(C)(C)O)cc2F)cc(F)cc1-c1ncnc2[nH]c(-c3ccc(CNCCOCCOCCOCCOCCOCCOCCOCCOCCOCCOCCOCCOCCC(=O)N4CCN(c5ccc6c(NCCN)nc(C7(c8ccc(Cl)cc8)CCCCC7)nc6c5)CC4)cc3)cc12 [DBt-5] | – | 7.05 | 4120 nM | 4240 nM | 100% | 50 nM | 100% | 50 nM | 50 nM | – | – | – | – | –
Cc1c(NC(=O)N2CC(O)(CC(C)(C)C)C2)cc(F)cc1-c1ncnc2[nH]c(-c3cnn(CC(=O)N4CCC5(CC4)CN(CCNC(=O)CCCC(=O)N4CCN(c6ccc7c(NCCN)nc(C8(c9ccc(Cl)cc9)CCCCC8)nc7c6)CC4)CCO5)c3)cc12 [DBt-10] | – | 6.83 | – | > 25000 nM | 94% | 137 nM | 94% | 149 nM | 137 nM | 2.5 µM | – | – | – | –
Cc1nc(Nc2ncc(C(=O)Nc3c(C)cccc3Cl)s2)cc(N2CCC(OC3CCN(CCCCCCCC(=O)N4CCN(c5ccc6c(NCCN)nc(C7(c8ccc(Cl)cc8)CCCCC7)nc6c5)CC4)CC3)CC2)n1 [DDa-1] | – | – | 1200 nM | – | – | – | – | 146 nM | 91.3 nM | – | 1200 nM | 90 nM | sub-µM potency | –
CC(=O)N1CCN(c2ccc3c(NCCN)nc(C4(c5ccc(Cl)cc5)CCCCC4)nc3c2)CC1 [compound 13] | – | – | 5220 nM | 5040 nM | – | – | 0% | – | > 25000 nM | – | – | – | – | did not reduce BTK at any time points
